Results published in patent US20090163528A1, “Pharmaceutical composition having analgesic effects” (priority 2004, published 2009).
Counter-ions that a name gives are not always drawn. Like-named read-outs stand apart in the source and are kept apart here.

How the values were obtained:
mice [1] = experiment: Toxicity test of the active medical ingredients (previous acute toxicology); details: mouse, in vivo
mice [2] = assay type: in vivo; details: Table 5
From the text: The division of animal groups, content of test drugs, dose and administration is the same as those in the body twisting test, while the contra positive is pethidine hydrochloride only.
In the course of the test, the mice show up reactions of hindleg sucking, hindleg kicking, skipping, etc; take the reaction of hindleg sucking as the pain indicator.

Kunming breed mice [3] = experiment: Body twisting test, mixtures of fuziline and benzoylmesaconitine in different proportions (Test 7); assay type: in vivo; details: benzoylmesaconitine 100 mg/kg stomach perfusion
Kunming breed mice [4] = assay type: in vivo
[5] = Toxicity test of the active medical ingredients (previous acute toxicology); details: mouse, in vivo
Kunming breed mice [6] = assay type: in vivo; details: mesaconitine 0.5 mg/kg stomach perfusion
Kunming breed mice [7] = experiment: Body twisting test, mixtures of fuziline and hypaconitine in different proportions (Test 6); assay type: in vivo; details: hypaconitine 1 mg/kg stomach perfusion
[8] = Table 3, 50 mg/kg stomach perfusion
[9] = Table 3, 100 mg/kg stomach perfusion
[10] = Table 3, 200 mg/kg stomach perfusion
[11] = Table 3, 400 mg/kg stomach perfusion
[12] = Table 3, 0.25 mg/kg stomach perfusion
[13] = Table 3, 0.5 mg/kg stomach perfusion
[14] = Table 3, 1 mg/kg stomach perfusion
[15] = Table 3, 2 mg/kg stomach perfusion
[16] = Table 3, 4 mg/kg stomach perfusion

COC[C@]12CN(C)[C@H]3C4C(OC)C1C3(C(OC)CC2O)C1C[C@@]2(O)C(OC(=O)c3ccccc3)C1[C@]4(O)[C@@H](O)C2OC (stereo partly shown) [Benzoylmesaconitine, benzoylmesaconitine]
maximum tolerance dose (mice [1]): 1000 mg/kg
Increasing rate of threshold pain after administration ( X ± SD) (mice [2]; 200 mg/kg stomach perfusion, 15 minutes): 22.1 ± 52.0%
Increasing rate of threshold pain after administration ( X ± SD) (mice [2]; 200 mg/kg stomach perfusion, 30 minutes): 32.9 ± 45.1 %
Increasing rate of threshold pain after administration ( X ± SD) (mice [2]; 200 mg/kg stomach perfusion, 60 minutes): 40.3 ± 76.4%
Increasing rate of threshold pain after administration ( X ± SD) (mice [2]; 200 mg/kg stomach perfusion, 90 minutes): 46.0 ± 87.4%
Increasing rate of threshold pain after administration ( X ± SD) (mice [2]; 200 mg/kg stomach perfusion, 120 minutes): 53.6 ± 93.9%
Increasing rate of threshold pain after administration ( X ± SD) (mice [2]; 400 mg/kg stomach perfusion, 15 minutes): 41.3 ± 90.2%
Increasing rate of threshold pain after administration ( X ± SD) (mice [2]; 400 mg/kg stomach perfusion, 30 minutes): 35.2 ± 57.2 %
Increasing rate of threshold pain after administration ( X ± SD) (mice [2]; 400 mg/kg stomach perfusion, 60 minutes): 78.8 ± 104.0 %
Increasing rate of threshold pain after administration ( X ± SD) (mice [2]; 400 mg/kg stomach perfusion, 90 minutes): 59.5 ± 88.5%
Increasing rate of threshold pain after administration ( X ± SD) (mice [2]; 400 mg/kg stomach perfusion, 120 minutes): 53.7 ± 117.0%
Increasing rate of threshold pain after administration ( X ± SD) (mice [2]; benzoylmesaconitine 100 mg/kg stomach perfusion, 15 minutes): −0.4 ± 33.8%
Increasing rate of threshold pain after administration ( X ± SD) (mice [2]; benzoylmesaconitine 100 mg/kg stomach perfusion, 30 minutes): 13.7 ± 52.3%
Increasing rate of threshold pain after administration ( X ± SD) (mice [2]; benzoylmesaconitine 100 mg/kg stomach perfusion, 60 minutes): 64.6 ± 76.7 %
Increasing rate of threshold pain after administration ( X ± SD) (mice [2]; benzoylmesaconitine 100 mg/kg stomach perfusion, 90 minutes): 71.1 ± 104.5%
Increasing rate of threshold pain after administration ( X ± SD) (mice [2]; benzoylmesaconitine 100 mg/kg stomach perfusion, 120 minutes): 106.2 ± 116.5%
Pain suppression rate (Kunming breed mice [3]): 34.6%
Body twisting number ( χ ± SD) (Kunming breed mice [4]; [8]): 27.2 ± 12.2
Pain suppression rate (Kunming breed mice [4]; [8]): 20.70%
Body twisting number ( χ ± SD) (Kunming breed mice [4]; [9]): 27.4 ± 15.9
Pain suppression rate (Kunming breed mice [4]; [9]): 20.12%
Body twisting number ( χ ± SD) (Kunming breed mice [4]; [10]): 21.0 ± 15.1
Pain suppression rate (Kunming breed mice [4]; [10]): 38.78%
Body twisting number ( χ ± SD) (Kunming breed mice [4]; [11]): 20.4 ± 12.9
Pain suppression rate (Kunming breed mice [4]; [11]): 40.52%

CCOC(=O)C1(c2ccccc2)CCN(C)CC1 [Pethidine hydrochloride, pethidine hydrochloride, reference compound]
Body twisting number ( χ ± SD) (Kunming breed mice [4]; mouse, in vivo, 40 mg/kg): 0 ± 0
Pain suppression rate (Kunming breed mice [4]; mouse, in vivo, 40 mg/kg, hydrochloride): 100%

COC[C@]12CN(C)[C@H]3C4C(OC)C1C3(C(OC)CC2O)C1C[C@@]2(O)C(OC(=O)c3ccccc3)C1[C@]4(OC(C)=O)[C@@H](O)C2OC (stereo partly shown) [Mesaconitine, mesaconitine]
LD50 ([5]; LD50): 6.41 mg/kg
Pain suppression rate (Kunming breed mice [6]): 62.6%
Increasing rate of threshold pain after administration ( X ± SD) (mice [2]; 12.5 mg/kg stomach perfusion, 15 minutes): 12.1 ± 45.0%
Increasing rate of threshold pain after administration ( X ± SD) (mice [2]; 12.5 mg/kg stomach perfusion, 30 minutes): −6.3 ± 31.4%
Increasing rate of threshold pain after administration ( X ± SD) (mice [2]; 12.5 mg/kg stomach perfusion, 60 minutes): −0.5 ± 38.7%
Increasing rate of threshold pain after administration ( X ± SD) (mice [2]; 12.5 mg/kg stomach perfusion, 90 minutes): −11.3 ± 34.2%
Increasing rate of threshold pain after administration ( X ± SD) (mice [2]; 12.5 mg/kg stomach perfusion, 120 minutes): 11.1 ± 38.8%
Increasing rate of threshold pain after administration ( X ± SD) (mice [2]; 25 mg/kg stomach perfusion, 15 minutes): 39.7 ± 76.6%
Increasing rate of threshold pain after administration ( X ± SD) (mice [2]; 25 mg/kg stomach perfusion, 30 minutes): 59.2 ± 146.9%
Increasing rate of threshold pain after administration ( X ± SD) (mice [2]; 25 mg/kg stomach perfusion, 60 minutes): 37.2 ± 88.5%
Increasing rate of threshold pain after administration ( X ± SD) (mice [2]; 25 mg/kg stomach perfusion, 90 minutes): 61.3 ± 82.1^Δ %
Increasing rate of threshold pain after administration ( X ± SD) (mice [2]; 25 mg/kg stomach perfusion, 120 minutes): 80.7 ± 100.1%
Increasing rate of threshold pain after administration ( X ± SD) (mice [2]; 50 mg/kg stomach perfusion, 15 minutes): 21.4 ± 42.9%
Increasing rate of threshold pain after administration ( X ± SD) (mice [2]; 50 mg/kg stomach perfusion, 30 minutes): 14.4 ± 34.7%
Increasing rate of threshold pain after administration ( X ± SD) (mice [2]; 50 mg/kg stomach perfusion, 60 minutes): 7.9 ± 37.8%
Increasing rate of threshold pain after administration ( X ± SD) (mice [2]; 50 mg/kg stomach perfusion, 90 minutes): 30.4 ± 44.1^Δ %
Increasing rate of threshold pain after administration ( X ± SD) (mice [2]; 50 mg/kg stomach perfusion, 120 minutes): 36.0 ± 42.6%
Increasing rate of threshold pain after administration ( X ± SD) (mice [2]; mesaconitine 100 mg/kg stomach perfusion, 15 minutes): 124.8 ± 165.4%
Increasing rate of threshold pain after administration ( X ± SD) (mice [2]; mesaconitine 100 mg/kg stomach perfusion, 30 minutes): 97.7 ± 184.6%
Increasing rate of threshold pain after administration ( X ± SD) (mice [2]; mesaconitine 100 mg/kg stomach perfusion, 60 minutes): 64.3 ± 149.5%
Increasing rate of threshold pain after administration ( X ± SD) (mice [2]; mesaconitine 100 mg/kg stomach perfusion, 90 minutes): 108.3 ± 105.0^ΔΔ %
Increasing rate of threshold pain after administration ( X ± SD) (mice [2]; mesaconitine 100 mg/kg stomach perfusion, 120 minutes): 49.0 ± 52.9%
Body twisting number ( χ ± SD) (Kunming breed mice [4]; [12]): 33.6 ± 11.5
Pain suppression rate (Kunming breed mice [4]; [12]): 14.50%
Body twisting number ( χ ± SD) (Kunming breed mice [4]; [13]): 20.0 ± 9.6^ΔΔ
Pain suppression rate (Kunming breed mice [4]; [13]): 49.11%
Body twisting number ( χ ± SD) (Kunming breed mice [4]; [14]): 21.8 ± 12.6^ΔΔ
Pain suppression rate (Kunming breed mice [4]; [14]): 44.53%
Body twisting number ( χ ± SD) (Kunming breed mice [4]; [15]): 19.3 ± 10.0^ΔΔ
Pain suppression rate (Kunming breed mice [4]; [15]): 50.89%

COC[C@@]12CCC(OC)C34C5C[C@@]6(O)C(OC(=O)c7ccccc7)C5[C@@](OC(C)=O)(C(C(OC)C31)[C@@H]4N(C)C2)[C@@H](O)C6OC (stereo partly shown) [Hypaconitine, hypaconitine]
LD50 ([5]; 8.19 mg/kg, 95% of the confidence interval of LD50): 10.9 to 15 mg/kg
LD50 ([5]; 8.19 mg/kg, LD50, previous acute toxicology): 12.8 mg/kg
LD50 ([5]; LD50): 12.8 mg/kg
dose with no mice dead (mice [1]): 8.19 mg/kg
Pain suppression rate (Kunming breed mice [7]): 48.0%
Increasing rate of threshold pain after administration ( X ± SD) (mice [2]; 1 mg/kg stomach perfusion, 15 minutes): −16.6 ± 31.9%
Increasing rate of threshold pain after administration ( X ± SD) (mice [2]; 1 mg/kg stomach perfusion, 30 minutes): −31.9 ± 24.2%
Increasing rate of threshold pain after administration ( X ± SD) (mice [2]; 1 mg/kg stomach perfusion, 60 minutes): −18.1 ± 34.5%
Increasing rate of threshold pain after administration ( X ± SD) (mice [2]; 1 mg/kg stomach perfusion, 90 minutes): −13.0 ± 14.9%
Increasing rate of threshold pain after administration ( X ± SD) (mice [2]; 1 mg/kg stomach perfusion, 120 minutes): 28.3 ± 56.3%
Increasing rate of threshold pain after administration ( X ± SD) (mice [2]; 2 mg/kg stomach perfusion, 15 minutes): 72.4 ± 57.6 %
Increasing rate of threshold pain after administration ( X ± SD) (mice [2]; 2 mg/kg stomach perfusion, 30 minutes): 36.0 ± 53.4%
Increasing rate of threshold pain after administration ( X ± SD) (mice [2]; 2 mg/kg stomach perfusion, 60 minutes): 17.3 ± 56.1%
Increasing rate of threshold pain after administration ( X ± SD) (mice [2]; 2 mg/kg stomach perfusion, 90 minutes): 15.3 ± 60.1%
Increasing rate of threshold pain after administration ( X ± SD) (mice [2]; 2 mg/kg stomach perfusion, 120 minutes): −13.0 ± 33.1%
Increasing rate of threshold pain after administration ( X ± SD) (mice [2]; 4 mg/kg stomach perfusion, 15 minutes): 142.7 ± 139.4 %
Increasing rate of threshold pain after administration ( X ± SD) (mice [2]; 4 mg/kg stomach perfusion, 30 minutes): 104.1 ± 137.4 %
Increasing rate of threshold pain after administration ( X ± SD) (mice [2]; 4 mg/kg stomach perfusion, 60 minutes): 81.7 ± 100.0 %
Increasing rate of threshold pain after administration ( X ± SD) (mice [2]; 4 mg/kg stomach perfusion, 90 minutes): 34.4 ± 59.3 %
Increasing rate of threshold pain after administration ( X ± SD) (mice [2]; 4 mg/kg stomach perfusion, 120 minutes): 59.1 ± 55.6 %
Body twisting number ( χ ± SD) (Kunming breed mice [4]; [13]): 27.6 ± 11.5
Pain suppression rate (Kunming breed mice [4]; [13]): 29.77%
Body twisting number ( χ ± SD) (Kunming breed mice [4]; [14]): 24.5 ± 9.8
Pain suppression rate (Kunming breed mice [4]; [14]): 37.66%
Body twisting number ( χ ± SD) (Kunming breed mice [4]; [15]): 23.6 ± 10.9
Pain suppression rate (Kunming breed mice [4]; [15]): 39.95%
Body twisting number ( χ ± SD) (Kunming breed mice [4]; [16]): 2.8 ± 4.5
Pain suppression rate (Kunming breed mice [4]; [16]): 92.88%
